Tested on: NOMO1
Experiment: cell viability relative to DMSO control; higher = less cytotoxic
Details: 48 h
In short: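 Library compounds in DMSO were pin-dosed in an 11-point threefold series (47 μM to 0.79 nM) onto leukemia cells in 1536-well plates (5 μl). Plates held 500 cells/well of NOMO1 or SEM or 1000 cells/well of P12-Ichikawa, each adapted for at least four passages in each medium. Luminescence was read with CellTiter-Glo One after 48 h at 37°C. Viability means the per-plate percentage relative to DMSO wells, using cell-free wells as background.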

[1] = HPLM + 10% dialyzed FBS, 0.000781 µM
[2] = HPLM + 10% dialyzed FBS, 0.00234 µM
[3] = HPLM + 10% dialyzed FBS, 0.00702 µM
[4] = HPLM + 10% dialyzed FBS, 0.0211 µM
[5] = HPLM + 10% dialyzed FBS, 0.0632 µM
[6] = HPLM + 10% dialyzed FBS, 0.19 µM
[7] = HPLM + 10% dialyzed FBS, 0.569 µM
[8] = HPLM + 10% dialyzed FBS, 1.71 µM
[9] = HPLM + 10% dialyzed FBS, 5.12 µM
[10] = HPLM + 10% dialyzed FBS, 15.4 µM
[11] = HPLM + 10% dialyzed FBS, 46.1 µM
[12] = RPMI 5 mM glucose + 10% FBS, 0.000781 µM
[13] = RPMI 5 mM glucose + 10% FBS, 0.00234 µM
[14] = RPMI 5 mM glucose + 10% FBS, 0.00702 µM
[15] = RPMI 5 mM glucose + 10% FBS, 0.0211 µM
[16] = RPMI 5 mM glucose + 10% FBS, 0.0632 µM
[17] = RPMI 5 mM glucose + 10% FBS, 0.19 µM
[18] = RPMI 5 mM glucose + 10% FBS, 0.569 µM
[19] = RPMI 5 mM glucose + 10% FBS, 1.71 µM
[20] = RPMI 5 mM glucose + 10% FBS, 5.12 µM
[21] = RPMI 5 mM glucose + 10% FBS, 15.4 µM
[22] = RPMI 5 mM glucose + 10% FBS, 46.1 µM
[23] = RPMI 5 mM glucose + 10% dialyzed FBS, 0.000781 µM
[24] = RPMI 5 mM glucose + 10% dialyzed FBS, 0.00234 µM
[25] = RPMI 5 mM glucose + 10% dialyzed FBS, 0.00702 µM
[26] = RPMI 5 mM glucose + 10% dialyzed FBS, 0.0211 µM
[27] = RPMI 5 mM glucose + 10% dialyzed FBS, 0.0632 µM
[28] = RPMI 5 mM glucose + 10% dialyzed FBS, 0.19 µM
[29] = RPMI 5 mM glucose + 10% dialyzed FBS, 0.569 µM
[30] = RPMI 5 mM glucose + 10% dialyzed FBS, 1.71 µM
[31] = RPMI 5 mM glucose + 10% dialyzed FBS, 5.12 µM
[32] = RPMI 5 mM glucose + 10% dialyzed FBS, 15.4 µM
[33] = RPMI 5 mM glucose + 10% dialyzed FBS, 46.1 µM

| Structure (SMILES) | cell viability [1] [%] | cell viability [2] [%] | cell viability [3] [%] | cell viability [4] [%] | cell viability [5] [%] | cell viability [6] [%] | cell viability [7] [%] | cell viability [8] [%] | cell viability [9] [%] | cell viability [10] [%] | cell viability [11] [%] | cell viability [12] [%] | cell viability [13] [%] | cell viability [14] [%] | cell viability [15] [%] | cell viability [16] [%] | cell viability [17] [%] | cell viability [18] [%] | cell viability [19] [%] | cell viability [20] [%] | cell viability [21] [%] | cell viability [22] [%] | cell viability [23] [%] | cell viability [24] [%] | cell viability [25] [%] | cell viability [26] [%] | cell viability [27] [%] | cell viability [28] [%] | cell viability [29] [%] | cell viability [30] [%] | cell viability [31] [%] | cell viability [32] [%] | cell viability [33] [%] |
| --- | --- | --- | --- | --- | --- | --- | --- | --- | --- | --- | --- | --- | --- | --- | --- | --- | --- | --- | --- | --- | --- | --- | --- | --- | --- | --- | --- | --- | --- | --- | --- | --- | --- |
| CCCc1nc(C(C)(C)O)c(C(=O)O)n1Cc1ccc(-c2ccccc2-c2nn[nH]n2)cc1 | 97.7 | 111 | 107 | 114 | 119 | 120 | 149 | 115 | 113 | 119 | 126 | 107 | 103 | 105 | 110 | 105 | 125 | 123 | 113 | 112 | 114 | 124 | 106 | 104 | 115 | 116 | 114 | 117 | 124 | 113 | 128 | 126 | 112 |
| CC(NC1=CC=CC=C1)C\2=C\C(=C/N3C(=O)\C=C(/N=C23)N4CCOCC4)C (stereo unspecified) | 91.6 | 106 | 115 | 105 | 114 | 117 | 125 | 118 | 108 | 99.6 | 87.6 | 92.7 | 96.3 | 97.7 | 109 | 109 | 102 | 115 | 99.8 | 108 | 105 | 108 | 95.7 | 92.9 | 111 | 110 | 105 | 116 | 109 | 108 | 94.7 | 96.7 | 83 |
| COC1=CC2=NC=CC(=C2C=C1)OC3=CN=C(NC(=O)C/4=C(C)/N(CC(C)(C)O)N(C4=O)C5=CC=CC=C5)C=C3 | 82 | 87.4 | 86.3 | 101 | 103 | 107 | 98.9 | 96.4 | 69.1 | 88 | 62.1 | 78.8 | 92 | 88.6 | 95 | 91.7 | 91.7 | 91.2 | 98.7 | 85.6 | 93.4 | 81.8 | 73.7 | 86.8 | 91.6 | 88.2 | 97.7 | 83.1 | 96.6 | 84.8 | 77.2 | 94.1 | 64 |
| CC(=O)Oc1ccccc1C(=O)O | 106 | 107 | 104 | 105 | 115 | 107 | 107 | 99.2 | 88 | 98.9 | 103 | 93.8 | 95.9 | 92.9 | 88.4 | 97.9 | 87.4 | 95.2 | 106 | 88.3 | 101 | 90.4 | 97.7 | 104 | 106 | 109 | 110 | 93.4 | 91.8 | 105 | 88.4 | 94.9 | 96.6 |
| CC[C@H](CC#N)OC(=O)N[C@@H](C)c1cccc(NC(=O)Nc2ccc(-c3cnco3)c(OC)c2)c1 | 117 | 114 | 119 | 105 | 127 | 111 | 98.2 | 76.4 | 38.9 | 32.1 | 35.1 | 111 | 104 | 121 | 107 | 114 | 105 | 113 | 66.8 | 38.3 | 25.9 | 22.3 | 117 | 106 | 115 | 120 | 111 | 112 | 91 | 84 | 51.9 | 39.4 | 35.8 |
| CN1[C@@H]2CC(OC(=O)[C@@H](CO)c3ccccc3)C[C@H]1[C@H]1O[C@H]12 (stereo partly specified) | 94.8 | 120 | 108 | 124 | 103 | 104 | 106 | 95.8 | 93.8 | 92.3 | 121 | 87.3 | 86.7 | 101 | 85.5 | 90.3 | 85.2 | 86.3 | 93.4 | 82.9 | 81.4 | 81.3 | 80.4 | 95.5 | 98.8 | 88.5 | 102 | 103 | 90.9 | 99.4 | 88.2 | 95.4 | 89.8 |
| FC(F)(F)c1ccc(/C=C/c2nc(COc3ccc(CCCCn4ccnn4)cc3)co2)cc1 | 127 | 125 | 122 | 127 | 120 | 104 | 107 | 79.4 | 27.7 | 25.2 | 22.6 | 125 | 122 | 128 | 137 | 134 | 127 | 126 | 92.1 | 20.5 | 15.3 | 13.1 | 122 | 143 | 122 | 124 | 124 | 116 | 130 | 128 | 27.8 | 24.1 | 19.9 |
| CC1=CC=CC=C1N2\C(=N/C3=C(C(=CC=C3)C)C2=O)C[N]4C=NC5=C4N=CN=C5N | – | – | – | – | – | – | – | – | – | – | – | 107 | 106 | 122 | 108 | 110 | 106 | 107 | 94.4 | 69.2 | 72.9 | 67 | 108 | 109 | 109 | 97.1 | 113 | 92.6 | 94.8 | 80.8 | 67.2 | 64.5 | 61.1 |
| CCC(C)SSc1ncc[nH]1 (stereo unspecified) | 88 | 85.5 | 94.8 | 103 | 102 | 105 | 90.3 | 87.4 | 104 | 53.6 | 12.6 | 86 | 93.9 | 97.7 | 98.2 | 92.5 | 93.1 | 96.5 | 104 | 104 | 67.5 | 13.6 | 89 | 97.6 | 89.2 | 101 | 94.5 | 94.5 | 94.8 | 105 | 101 | 81.8 | 9.7 |
| COC[C@H]1OC(=O)C2=COC3=C2[C@@]1(C)\C4=C(C5CCC(=O)[C@@]5(C)C[C@H]4OC(C)=O)/C3=O (stereo partly specified) | 84.5 | 111 | 107 | 36.5 | 111 | 114 | 104 | 114 | 108 | 95 | 102 | 90.1 | 92 | 92.2 | 19.6 | 98.7 | 98.3 | 100 | 91.8 | 93.6 | 91.8 | 107 | 82 | 85.2 | 95.7 | 47.2 | 93.3 | 94.1 | 90.9 | 94.6 | 91.5 | 87.5 | 87.6 |
| COC1=NC(=NC(=C1N\C2=N\CCN2)Cl)C | 113 | 94.9 | 90.3 | 93.6 | 111 | 104 | 89.5 | 109 | 82 | 97.6 | 84.8 | 79.1 | 83.8 | 89.1 | 93.1 | 94 | 100 | 84.2 | 91.8 | 92.5 | 86.5 | 90 | 86.2 | 85.8 | 82.8 | 85 | 95.6 | 94 | 91.3 | 86.5 | 80.3 | 89.5 | 85.3 |
| [NH2][Pt]1([NH2])[O]CC(=O)[O]1 | 96.9 | 109 | 98 | 101 | 96 | 108 | 97.8 | 106 | 85.9 | 91.3 | 88.3 | 94.5 | 83 | 99.1 | 85.2 | 82.4 | 93.8 | 98.7 | 92.9 | 93.8 | 80.5 | 84.3 | 92.7 | 86.9 | 90.7 | 98.1 | 93.2 | 89.1 | 87.8 | 92.5 | 83.9 | 77.8 | 104 |
| OC1=CC=C(C=C1)\C2=C\OC3=C(C=CC(=C3)O)C2=O | 97.3 | 92.8 | 102 | 119 | 118 | 99.6 | 105 | 106 | 104 | 93.9 | 99.6 | 93.1 | 91.6 | 89 | 93.4 | 119 | 96.2 | 92.4 | 86.8 | 103 | 100 | 94.2 | 98.8 | 108 | 84.2 | 107 | 112 | 96.1 | 105 | 96.6 | 102 | 89 | 94.5 |
| CCC[C@H](NC(=O)/C(C#N)=C/c1cccc(Br)n1)c1ccccc1 | – | – | – | – | – | – | – | – | – | – | – | 110 | 123 | 116 | 111 | 111 | 107 | 103 | 108 | 104 | 111 | 4.55 | 109 | 114 | 122 | 115 | 109 | 117 | 120 | 116 | 108 | 99.9 | 4.54 |
| O=C([O-])C(O)Cc1ccc(O)c(O)c1 (stereo unspecified) | 100 | 91 | 108 | 95.5 | 116 | 106 | 99.4 | 100 | 90.8 | 74.9 | 60.1 | 91.8 | 83.7 | 87.1 | 96.5 | 91.2 | 91.8 | 84 | 92.5 | 87.4 | 77.9 | 64.3 | 96.7 | 102 | 104 | 100 | 96.4 | 91.4 | 100 | 84.4 | 81.4 | 78.5 | 65.4 |
| C/C=C(/C)C(=O)O[C@H]1C(C)=C2[C@H]([C@@H]1OC(=O)CCCCCCC)[C@@](C)(OC(C)=O)C[C@H](OC(=O)CCC)[C@@]1(O)[C@H]2OC(=O)[C@@]1(C)O | 100 | 110 | 99.4 | 127 | 56.6 | 12.5 | 7.29 | 4.31 | 2.9 | 2.91 | 5 | 112 | 112 | 130 | 119 | 92.7 | 17 | 9.53 | 10.4 | 6.41 | 3.83 | 5.08 | 117 | 121 | 129 | 123 | 68 | 13.4 | 8.71 | 10.1 | 7.55 | 5.66 | 5.67 |
